Data published in ChEMBL document CHEMBL1126546, “Vitamin D analogues: new regulators of cancer cell growth and differentiation” (Bioorg Med Chem Lett, 1993).

Columns and labels:
U-937 [1] = assay: Concentration required for the compound to induce U 937 cells along the monocyte-macrophage pathway; type: functional, cell-based; settings: Homo sapiens
Rattus norvegicus = assay: Compound was tested for in vivo antitumor effect on rats with mammary tumors induced by nitrosomethylurea at a dose of 2.5 ug/kg/day; type: functional
U-937 [2] = assay: Compound was tested in vitro to inhibit proliferation of U 937 human histiolytic lymphoma cells; type: functional, cell-based

Structure (SMILES)	Concentration (U-937 [1])	inhibition in vivo at 0.0025 mg/kg/day (Rattus norvegicus)	IC50 (U-937 [2])
C=C1/C(=C\C=C2/CCC[C@]3(C)[C@@H]([C@H](C)CCCC(C)(C)O)CC[C@@H]23)C[C@@H](O)C[C@@H]1O	2 nM		
C=C1/C(=C\C=C2/CCC[C@]3(C)[C@@H]([C@H](C)/C=C/C=C/C(O)(CC)CC)CC[C@@H]23)C[C@@H](O)C[C@@H]1O [SEOCALCITOL]	0.03 nM	80%	0.25 nM
